# Reference: ChEMBL document CHEMBL2384993, “Multidimensional optimization of promising antitumor xanthone derivatives” (Bioorg Med Chem, 2013)
# Legend:
# [1] = Liposomes-buffer partition coefficient, log K of the compound after 30 mins at pH 7.4 by UV-vis spectrophotometric analysis; assay type: physicochemical; settings: artificial membrane, pH 7.4, 0.5 h
# [2] = Growth inhibition of human A375-C5 cells after 48 hrs by sulforhodamine B assay; assay type: functional; settings: A375-C5, 48 h
# HL-60 [3] = assay: Growth inhibition of human HL60 cells after 48 hrs by sulforhodamine B assay; assay type: functional; settings: HL-60, 48 h
# [4] = Micelles-buffer partition coefficient, log K of the compound after 30 mins at pH 7.4 by UV-vis spectrophotometric analysis; assay type: physicochemical; settings: pH 7.4, 0.5 h
# MCF7 = assay: Growth inhibition of human MCF7 cells after 48 hrs by sulforhodamine B assay; assay type: functional; settings: MCF7, 48 h
# NCI-H460 = assay: Growth inhibition of human NCI-H460 cells after 48 hrs by sulforhodamine B assay; assay type: functional; settings: NCI-H460, 48 h
# [5] = Thermodynamic solubility of the compound after 24 hrs at pH 7.4 by spectrophotometric analysis; assay type: physicochemical; settings: buffer, read-out: Therm_solubility
# HL-60 [6] = assay: Cytotoxicity against human HL60 cells after 24 to 72 hrs by trypan blue exclusion assay; assay type: functional, cell-based
SMILES,log K [1],GI50 (HL-60 [3]),log K [4],GI50 (MCF7),GI50 (NCI-H460),solubility thermodynamic at 24 h [5],GI50 [2],IC50 (HL-60 [6])
"CC1(C)CCc2cc3c(=O)c4ccccc4oc3c(O)c2O1 [DIHYDRO-12-HYDROXY-2,2-DIMETHYL-2H,6H-PYRANO[3,2-B]XANTHEN-6-ONE]",3.35,23.4 µM,3.28,39.7 µM,40.3 µM,0.4 µM,28.9 µM,6 µM
CCN(CC)c1ccc2c(=O)c3cc4c(c(OC)c3oc2c1)C=CC(C)(C)O4,,9.2 µM,,34.3 µM,26.8 µM,,21.9 µM,
COc1c2c(cc3c(=O)c4ccc(O)cc4oc13)OC(C)(C)C=C2,,18.8 µM,3.9,36.9 µM,34.9 µM,,27.1 µM,
CC1(C)CCc2cc3c(=O)c4ccc(O)cc4oc3c(O)c2O1,3.32,57 µM,3.76,82.5 µM,59.1 µM,0.62 µM,40.7 µM,
Cc1ccc2oc3c(O)c4c(cc3c(=O)c2c1)CCC(C)(C)O4,3.86,12.5 µM,3.92,> 150 µM,48.1 µM,< 0.1 µM,17.6 µM,
COc1cccc2c1C(=O)c1c(O)c3c(c(O)c1C2=O)C[C@@](O)(C(=O)CO)C[C@@H]3O[C@H]1C[C@H](N)[C@H](O)[C@H](C)O1 [DOXORUBICIN],,0.028 µM,,0.0654 µM,0.0641 µM,,0.145 µM,
CC1(C)CCc2cc3c(=O)c4cc(Cl)ccc4oc3c(O)c2O1,,9 µM,4.39,> 150 µM,> 150 µM,< 0.1 µM,> 150 µM,
COc1cccc2c(=O)c3cc4c(c(O)c3oc12)OC(C)(C)CC4,3.53,27.3 µM,3.58,,41.1 µM,0.23 µM,68 µM,

# The next lines start with results.
log K [1],GI50 (HL-60 [3]),log K [4],GI50 (MCF7),GI50 (NCI-H460),solubility thermodynamic at 24 h [5],SMILES,GI50 [2],IC50 (HL-60 [6])
4.02,5.14 µM,4.01,31.8 µM,30.9 µM,,COc1c2c(cc3c(=O)c4cc(C)ccc4oc13)CCC(C)(C)O2,29.7 µM,
4.48,48.4 µM,4.41,> 75 µM,> 75 µM,,COc1c2c(cc3c(=O)c4cc(Cl)ccc4oc13)OC(C)(C)CC2,> 75 µM,
,14.1 µM,4.34,> 150 µM,> 150 µM,,COc1c2c(cc3c(=O)c4cc(Cl)ccc4oc13)OC(C)(C)C=C2,> 150 µM,
3.88,,3.83,> 75 µM,> 75 µM,,COc1cc2oc3c(OC)c4c(cc3c(=O)c2cc1OC)OC(C)(C)CC4,> 75 µM,
3.25,23.9 µM,3.35,> 150 µM,> 150 µM,< 0.1 µM,COc1ccc2oc3c(O)c4c(cc3c(=O)c2c1)CCC(C)(C)O4,> 150 µM,
4.62,14.4 µM,4.7,14.5 µM,13.7 µM,,CCN(CC)c1ccc2c(=O)c3cc4c(c(OC)c3oc2c1)CCC(C)(C)O4,19.6 µM,
3.6,8.8 µM,3.59,> 150 µM,> 150 µM,,COc1c2c(cc3c(=O)c4ccccc4oc13)CCC(C)(C)O2,> 150 µM,
3.43,8.3 µM,3.49,> 150 µM,> 150 µM,,COc1c2c(cc3c(=O)c4ccc(O)cc4oc13)CCC(C)(C)O2,> 150 µM,
,72.3 µM,3.88,> 100 µM,> 100 µM,,COc1cc2oc3c(OC)c4c(cc3c(=O)c2cc1OC)CCC(C)(C)O4,> 100 µM,
4.32,> 50 µM,4.29,> 50 µM,> 50 µM,,COc1c2c(cc3c(=O)c4cc(C)ccc4oc13)OC(C)(C)C=C2,> 50 µM,
,,4.21,> 150 µM,> 150 µM,,COc1ccc2oc3c(OC)c4c(cc3c(=O)c2c1)OC(C)(C)C=C4,> 150 µM,
